Columns and labels:
C57BL6 mice = assay: CFA inflammatory pain model, Blackbox behavioral analysis of hind paw usage; assay type: in vivo; details: for reversal of CFA-induced mechanical hypersensitivity: beginning at 24 hours after intraplantar administration
Text: To evaluate the effect of different treatments on voluntary pain-related behaviors in mice, we used the Blackbox behavioral analysis system, as previously described (Zhang, et al., PAIN, 2022 Dec. 1; 163 (12): 2326-2336, incorporated herein by reference in its entirety).
• Male and female C57BL6 mice (n=5 per group) • Complete Freund's Adjuvant (CFA, Sigma) • Saline • PBS • DMSO • Compound 1 • Compound 2 • Syringes (for injections) • Hargreaves apparatus (for thermal pain testing) • Blackbox behavioral analysis setup
• Divide mice into groups (n=10 per group). • Inject 20 μL of CFA or saline into the right hind paw of each mouse.
• 24 hours after CFA injection, randomly assign mice to the following groups: • Control Group: PBS+PBS • CFA+PBS Group • CFA+DMSO Group • CFA+Compound 1 Group • CFA+Compound 2 Group
• Inject the designated treatment (PBS (20 μL), DMSO (20 μL), Compound 1 (1 μM in 20 μL PBS), or Compound 2 (1 μM in 20 μL DMSO)) into the plantar right paw of each mouse according to their assigned group.
• Perform Blackbox behavioral analysis and Hargreaves test at the following time points after drug injection: 1 hour, 3 hours, 6 hours, and 24 hours.
• Blackbox Behavioral Analysis: • Place each mouse in the Blackbox apparatus for 10 minutes. • Record and analyze behaviors indicative of pain or discomfort (e.g., grooming, paw licking, flinching).
• Record the data for each mouse at each time point. • Compare the results across different groups to assess the effects of the treatments on pain response.
This protocol outlines the steps to assess the impact of different treatments on pain response in mice using Blackbox behavioral analysis. Mice are injected with CFA or saline, followed by treatment with Compound 1 or Compound 2, and negative controls using vehicle (PBS or DMSO) alone.
• 1. Control Group: PBS+PBS • 2. CFA+PBS Group • 3. CFA+DMSO Group • 4. CFA+Compound 1 Group • 5. CFA+Compound 2 Group
• 1 hour after drug injection • 3 hours after drug injection • 6 hours after drug injection • 24 hours after drug injection Precise timing and consistent handling throughout the experiment were utilized to maintain the validity of the results.
Effect of Compound 1. Eight-week-old male and female mice (n=5 mice/group) were injected with CFA (20 μL; intradermal) or saline (20 μL) into the right hind paw. Left (contralateral) hindpaw luminance (FIG. 3A) and ratio of time (FIG. 3B), as well as right hindpaw luminance (FIG. 4A) and ratio of time (FIG. 4B), were assessed as surrogates for mechanical pain hypersensitivity at 1-, 3-, 6-, and 24-hours post-treatment.
Data were analyzed using a two-way ANOVA to assess the effects of CFA injection and subsequent treatments on hindpaw usage and thermal pain hypersensitivity. Post-hoc comparisons were performed using Dunnett's test to identify significant differences between treatment groups.
Effect of Compound 2. Eight-week-old male and female mice (n=5 mice/group) were injected with CFA (20 μL; intradermal) or saline (20 μL) into the right hind paw. Left (contralateral) hind paw luminance (FIG. 5A) and ratio of time (FIG. 5B), as well as right hindpaw luminance (FIG. 6A) and ratio of time (FIG. 6B), were assessed as a readout of mechanical pain hypersensitivity at 1-, 3-, 6-, and 24-hours post-treatment.
Data were analyzed using a two-way ANOVA to assess the effects of CFA injection and subsequent treatments on hindpaw usage (mechanical hypersensitivity). Post-hoc comparisons were performed using Dunnett's test to identify significant differences between treatment groups.

[1] = tested on: cultured dorsal root ganglion (DRG) neurons; assay: Calcium flux in cultured DRG neurons (Fura-2AM calcium imaging); assay type: cell-based, mice
Experimental: Methods: Assessment of Compound 1 Induced Calcium Flux in Cultured DRG Neurons To evaluate the effect of Compound 1 and Compound 2 on calcium flux in cultured dorsal root ganglion (DRG) neurons isolated from 8-week-old male mice, the following protocols were performed:
• 8-week-old C57BL6 male mice • Fura-2AM (calcium indicator dye) • Compound 1 (at concentrations of 1 μM and 10 μM) • Compound 2 (at concentrations of 1 μM and 10 μM) • ATP (P2X3R agonist, 10 μM) • Capsaicin (TRPV1 ligand, 10 μM) • KCl (50 mM) • Calcium imaging setup (calcium microscope)
• Euthanize 8-week-old male mice according to ethical guidelines. • Harvest the dorsal root ganglia (DRG) from the mice.
• Culture the DRG neurons in appropriate growth media for 24 hours. 3. […]
• Measure and record the average calcium flux (A). • Determine the percentage of responding neurons, identifying responding neurons as those with an f340/f380 fluorescence ratio >10% (B).
Eight-week-old C57BL6 male mice were euthanized, DRG harvested, and neurons cultured for 24 hours. The neurons were then loaded with Fura-2AM, a calcium-responsive dye, and single-neuron calcium flux was recorded by calcium microscopy. […] Average calcium flux (FIG. 1A) and the percentage (FIG. 1B) of responding neurons (identified as f340/f380>10% fluorescence) are shown. […]

[2] = Compound 1, 1 μM in 20 μL PBS, plantar right paw, 24 hours after CFA, 1, 3, 6, 24 hours post-treatment

| SMILES | CFA-induced durable reduction of right paw usage (C57BL6 mice; [2]) | left (contralateral) paw usage after CFA in the right paw, compared to control mice (C57BL6 mice; [2]) | reversal of CFA-induced mechanical hypersensitivity (C57BL6 mice) | calcium flux / activation of DRG neurons (interpretation) [1] | left (contralateral) paw usage after CFA in the right paw, compared to control mice (C57BL6 mice; Compound 2, 1 μM in 20 μL DMSO, plantar right paw, 24 hours after CFA, 1, 3, 6, 24 hours post-treatment) | CFA-induced durable reduction of right (injured) paw usage (C57BL6 mice; Compound 2, 1 μM in 20 μL DMSO, plantar right paw, effect beginning 24 hours after compound administration) |
| --- | --- | --- | --- | --- | --- | --- |
| CCN(CC)C(=O)[C@@H]1C=C2c3cccc4[nH]cc(c34)C[C@H]2[N+](C)(CC)C1 (stereo partly drawn) [Compound 1, (6aR,9R)-9-(diethylcarbamoyl)-7-ethyl-7-methyl-4,6,6a,7,8,9-hexahydroindolo[4,3-fg]quinolin-7-ium Iodide] | partly reduced | did not change | partial reversal | produced calcium flux |  |  |
| CCCCCC[N+]1(C)C[C@H](C(=O)N(CC)CC)C=C2c3cccc4[nH]cc(c34)C[C@H]21 (stereo partly drawn) [Compound 2, (6aR,9R)-9-(diethylcarbamoyl)-7-hexyl-7-methyl-4,6,6a, 7,8,9-hexahydroindolo[4,3-fg]quinolin-7-ium Iodide] |  |  | partial reversal | did not produce calcium flux | did not change | partly reduced |

— patent US20260146039A1, “NEUR[…] THE TREATMENT OF PAIN, ITCH AND NERVE INJURY” (Cacti, Inc., priority 2023, published 2026)
